According to ChEMBL document CHEMBL2010722, “Structure-activity relationship study of beta-carboline derivatives as haspin kinase inhibitors” (Bioorg Med Chem Lett, 2012):

What was measured:
Liver = experiment: Intrinsic clearance in mouse liver microsome at 3 uM; format: ADME; conditions: microsomes
[1] = target: Activated CDC42 kinase 1 (Homo sapiens) (UniProt Q07912); experiment: Inhibition of TNK2 at 10 uM
[2] = system: ALK tyrosine kinase receptor (Homo sapiens), Q9UM73 [F1174L]; experiment: Inhibition of ALK F1174L mutant at 10 uM
[3] = target: Tyrosine-protein kinase ABL2 (Homo sapiens) (UniProt P42684); experiment: Inhibition of ARG at 10 uM
[4] = target: Tyrosine-protein kinase CSK (Homo sapiens) (UniProt P41240); experiment: Inhibition of CSK at 10 uM
[5] = target: Ephrin type-A receptor 5 (Homo sapiens) (UniProt P54756); experiment: Inhibition of EPHA5 at 10 uM
[6] = target: Ephrin type-A receptor 6 (Homo sapiens) (UniProt Q9UF33); experiment: Inhibition of EPHA6 at 10 uM
[7] = target: Insulin receptor (Homo sapiens) (UniProt P06213); experiment: Inhibition of INSR at 10 uM
[8] = target: Tyrosine-protein kinase JAK2 (Homo sapiens) (UniProt O60674); experiment: Inhibition of JAK2 at 10 uM
[9] = target: Tyrosine-protein kinase Lyn (Homo sapiens) (UniProt P07948); experiment: Inhibition of LYNa at 10 uM
[10] = system: Platelet-derived growth factor receptor alpha (Homo sapiens), P16234 [V561D]; experiment: Inhibition of PDGFRa V561D mutant at 10 uM
[11] = system: Proto-oncogene tyrosine-protein kinase receptor Ret (Homo sapiens), P07949 [M918T]; experiment: Inhibition of RET M918T mutant at 10 uM
[12] = target: Proto-oncogene tyrosine-protein kinase ROS (Homo sapiens) (UniProt P08922); experiment: Inhibition of ROS at 10 uM
[13] = target: Tyrosine-protein kinase SYK (Homo sapiens) (UniProt P43405); experiment: Inhibition of SYK at 10 uM
[14] = target: BDNF/NT-3 growth factors receptor (Homo sapiens) (UniProt Q16620); experiment: Inhibition of TRKB at 10 uM
[15] = target: Tyrosine-protein kinase TXK (Homo sapiens) (UniProt P42681); experiment: Inhibition of TXK at 10 uM
[16] = target: Tyrosine-protein kinase receptor TYRO3 (Homo sapiens) (UniProt Q06418); experiment: Inhibition of TYRO3 at 10 uM
[17] = target: Aurora kinase A (Homo sapiens) (UniProt O14965); experiment: Inhibition of AurA at 10 uM
[18] = target: Aurora kinase A/Targeting protein for Xklp2 (Homo sapiens) (UniProt O14965+Q9ULW0); experiment: Inhibition of AurA-TPX2 at 10 uM; format: protein-complex assay
[19] = target: Aurora kinase C (Homo sapiens) (UniProt Q9UQB9); experiment: Inhibition of AurC at 10 uM
[20] = target: Serine/threonine-protein kinase B-raf (Homo sapiens) (UniProt P15056); experiment: Inhibition of BRAF at 10 uM
[21] = system: Serine/threonine-protein kinase B-raf (Homo sapiens), P15056 [V600E]; experiment: Inhibition of BRAF V600E mutant at 10 uM
[22] = target: Casein kinase I isoform alpha (Homo sapiens) (UniProt P48729); experiment: Inhibition of CK1a at 10 uM
[23] = target: Casein kinase II alpha'/ beta (Homo sapiens) (UniProt P67870+P19784); experiment: Inhibition of CK2a2/b at 10 uM; format: protein-complex assay
[24] = target: Dual specificity tyrosine-phosphorylation-regulated kinase 1B (Homo sapiens) (UniProt Q9Y463); experiment: Inhibition of DYRK1B at 10 uM
[25] = target: Dual specificity tyrosine-phosphorylation-regulated kinase 3 (Homo sapiens) (UniProt O43781); experiment: Inhibition of DYRK3 at 10 uM
[26] = target: Interleukin-1 receptor-associated kinase 4 (Homo sapiens) (UniProt Q9NWZ3); experiment: Inhibition of IRAK4 at 10 uM
[27] = target: Serine/threonine-protein kinase LATS2 (Homo sapiens) (UniProt Q9NRM7); experiment: Inhibition of LATS2 at 10 uM
[28] = target: Serine/threonine-protein kinase 10 (Homo sapiens) (UniProt O94804); experiment: Inhibition of LOK at 10 uM
[29] = target: Dual specificity mitogen-activated protein kinase kinase 3 (Homo sapiens) (UniProt P46734); experiment: Inhibition of MAP2K3 at 10 uM
[30] = target: Dual specificity mitogen-activated protein kinase kinase 5 (Homo sapiens) (UniProt Q13163); experiment: Inhibition of MAP2K5 at 10 uM
[31] = target: Mitogen-activated protein kinase kinase kinase 4 (Homo sapiens) (UniProt Q9Y6R4); experiment: Inhibition of MAP3K4 at 10 uM
[32] = target: Mitogen-activated protein kinase kinase kinase kinase 2 (Homo sapiens) (UniProt Q12851); experiment: Inhibition of MAP4K2 at 10 uM
[33] = target: MAP/microtubule affinity-regulating kinase 3 (Homo sapiens) (UniProt P27448); experiment: Inhibition of MARK3 at 10 uM
[34] = target: Mitogen-activated protein kinase kinase kinase 10 (Homo sapiens) (UniProt Q02779); experiment: Inhibition of MLK2 at 10 uM
[35] = target: MAP kinase-interacting serine/threonine-protein kinase 1 (Homo sapiens) (UniProt Q9BUB5); experiment: Inhibition of MNK1 at 10 uM
[36] = target: Serine/threonine-protein kinase Nek6 (Homo sapiens) (UniProt Q9HC98); experiment: Inhibition of NEK6 at 10 uM
[37] = target: NUAK family SNF1-like kinase 1 (Homo sapiens) (UniProt O60285); experiment: Inhibition of NuaK1 at 10 uM
[38] = target: PAS domain-containing serine/threonine-protein kinase (Homo sapiens) (UniProt Q96RG2); experiment: Inhibition of PASK at 10 uM
[39] = target: Lymphokine-activated killer T-cell-originated protein kinase (Homo sapiens) (UniProt Q96KB5); experiment: Inhibition of PBK at 10 uM
[40] = target: Serine/threonine-protein kinase pim-1 (Homo sapiens) (UniProt P11309); experiment: Inhibition of PIM1 at 10 uM
[41] = target: Protein kinase C gamma type (Homo sapiens) (UniProt P05129); experiment: Inhibition of PKCgamma at 10 uM
[42] = target: Serine/threonine-protein kinase D1 (Homo sapiens) (UniProt Q15139); experiment: Inhibition of PKD1 at 10 uM
[43] = target: Rho-associated protein kinase 1 (Homo sapiens) (UniProt Q13464); experiment: Inhibition of ROCK1 at 10 uM
[44] = target: Rho-associated protein kinase 2 (Homo sapiens) (UniProt O75116); experiment: Inhibition of ROCK2 at 10 uM
[45] = target: Ribosomal protein S6 kinase alpha-2 (Homo sapiens) (UniProt Q15349); experiment: Inhibition of RSK3 N-terminal at 10 uM
[46] = target: Serine/threonine-protein kinase SIK1 (Homo sapiens) (UniProt P57059); experiment: Inhibition of SIK at 10 uM

Sequence of Serine/threonine-protein kinase 10 (Homo sapiens) (O94804 whole entry, looked up): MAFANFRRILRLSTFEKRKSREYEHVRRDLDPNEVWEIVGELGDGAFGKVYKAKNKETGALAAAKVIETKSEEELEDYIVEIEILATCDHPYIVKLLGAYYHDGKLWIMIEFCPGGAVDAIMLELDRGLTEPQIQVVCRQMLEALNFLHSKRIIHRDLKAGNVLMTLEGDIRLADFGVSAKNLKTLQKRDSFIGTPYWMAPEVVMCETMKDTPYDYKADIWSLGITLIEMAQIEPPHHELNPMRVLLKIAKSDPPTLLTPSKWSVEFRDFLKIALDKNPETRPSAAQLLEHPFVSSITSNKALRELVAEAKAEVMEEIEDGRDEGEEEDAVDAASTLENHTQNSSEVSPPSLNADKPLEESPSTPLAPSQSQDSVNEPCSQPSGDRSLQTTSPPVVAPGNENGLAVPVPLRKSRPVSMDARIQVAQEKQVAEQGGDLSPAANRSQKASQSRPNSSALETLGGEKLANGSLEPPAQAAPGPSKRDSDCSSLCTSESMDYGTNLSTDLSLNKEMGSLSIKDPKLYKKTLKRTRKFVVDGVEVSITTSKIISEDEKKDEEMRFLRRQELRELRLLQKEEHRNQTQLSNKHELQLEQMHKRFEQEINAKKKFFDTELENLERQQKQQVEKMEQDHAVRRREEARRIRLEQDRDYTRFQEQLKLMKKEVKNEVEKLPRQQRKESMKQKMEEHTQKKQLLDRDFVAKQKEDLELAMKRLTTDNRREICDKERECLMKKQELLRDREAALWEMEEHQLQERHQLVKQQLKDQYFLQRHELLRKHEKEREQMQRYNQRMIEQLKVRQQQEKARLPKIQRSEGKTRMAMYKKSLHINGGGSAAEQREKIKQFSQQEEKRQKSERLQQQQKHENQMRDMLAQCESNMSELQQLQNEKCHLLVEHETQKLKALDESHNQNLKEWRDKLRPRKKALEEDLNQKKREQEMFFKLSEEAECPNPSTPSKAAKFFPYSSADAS
Sequence of Serine/threonine-protein kinase Nek6 (Homo sapiens) (Q9HC98 whole entry): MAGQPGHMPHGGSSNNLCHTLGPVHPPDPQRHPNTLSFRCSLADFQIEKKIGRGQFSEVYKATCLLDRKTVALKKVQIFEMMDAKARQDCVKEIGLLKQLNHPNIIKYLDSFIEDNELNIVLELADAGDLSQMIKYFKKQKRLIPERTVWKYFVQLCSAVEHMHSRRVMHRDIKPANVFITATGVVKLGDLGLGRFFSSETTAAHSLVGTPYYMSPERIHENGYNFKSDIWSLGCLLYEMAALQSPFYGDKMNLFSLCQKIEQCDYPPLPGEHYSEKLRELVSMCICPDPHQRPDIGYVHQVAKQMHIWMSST
Sequence of Aurora kinase A (Homo sapiens) (O14965 whole entry): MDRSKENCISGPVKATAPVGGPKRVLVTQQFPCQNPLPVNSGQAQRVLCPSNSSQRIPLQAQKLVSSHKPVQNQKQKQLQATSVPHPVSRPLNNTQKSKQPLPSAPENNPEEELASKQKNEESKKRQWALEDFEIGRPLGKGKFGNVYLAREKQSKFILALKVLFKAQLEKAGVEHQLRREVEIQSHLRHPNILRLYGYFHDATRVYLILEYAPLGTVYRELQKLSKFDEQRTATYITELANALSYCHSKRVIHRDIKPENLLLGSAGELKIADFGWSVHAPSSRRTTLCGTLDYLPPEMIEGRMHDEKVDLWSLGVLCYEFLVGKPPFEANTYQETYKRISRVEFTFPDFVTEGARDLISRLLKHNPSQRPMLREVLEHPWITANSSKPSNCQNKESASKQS
Sequence of Dual specificity mitogen-activated protein kinase kinase 3 (Homo sapiens) (P46734 whole entry): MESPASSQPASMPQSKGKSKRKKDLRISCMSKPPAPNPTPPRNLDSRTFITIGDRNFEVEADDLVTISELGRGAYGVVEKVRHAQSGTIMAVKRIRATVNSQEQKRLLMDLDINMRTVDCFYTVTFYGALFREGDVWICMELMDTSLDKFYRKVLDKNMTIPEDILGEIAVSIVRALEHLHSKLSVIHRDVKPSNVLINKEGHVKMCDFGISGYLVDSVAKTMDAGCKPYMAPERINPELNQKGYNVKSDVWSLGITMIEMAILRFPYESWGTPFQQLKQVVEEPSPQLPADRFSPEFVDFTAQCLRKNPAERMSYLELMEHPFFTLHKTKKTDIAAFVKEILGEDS
Sequence of BDNF/NT-3 growth factors receptor (Homo sapiens) (Q16620 32-822 limits assumed): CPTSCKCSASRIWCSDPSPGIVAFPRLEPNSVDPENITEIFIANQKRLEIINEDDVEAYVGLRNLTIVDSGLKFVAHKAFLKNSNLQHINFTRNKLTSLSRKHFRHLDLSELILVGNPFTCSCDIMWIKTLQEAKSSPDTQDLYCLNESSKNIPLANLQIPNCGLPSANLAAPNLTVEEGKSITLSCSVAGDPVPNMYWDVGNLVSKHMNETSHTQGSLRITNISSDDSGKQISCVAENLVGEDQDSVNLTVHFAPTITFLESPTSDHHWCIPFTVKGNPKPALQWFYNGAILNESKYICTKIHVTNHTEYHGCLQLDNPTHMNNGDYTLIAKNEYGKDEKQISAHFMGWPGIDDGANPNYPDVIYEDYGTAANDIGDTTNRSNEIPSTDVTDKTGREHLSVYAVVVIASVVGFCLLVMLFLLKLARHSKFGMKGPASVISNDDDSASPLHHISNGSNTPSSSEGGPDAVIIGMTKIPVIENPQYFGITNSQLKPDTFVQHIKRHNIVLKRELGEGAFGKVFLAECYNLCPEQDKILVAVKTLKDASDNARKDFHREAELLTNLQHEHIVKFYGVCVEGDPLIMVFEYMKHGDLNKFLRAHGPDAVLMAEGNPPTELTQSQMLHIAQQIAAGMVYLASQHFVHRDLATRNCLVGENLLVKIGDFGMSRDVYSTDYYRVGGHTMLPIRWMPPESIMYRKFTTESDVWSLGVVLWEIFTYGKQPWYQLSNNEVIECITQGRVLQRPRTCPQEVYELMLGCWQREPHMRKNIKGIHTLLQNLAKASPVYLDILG
Sequence of Serine/threonine-protein kinase LATS2 (Homo sapiens) (Q9NRM7 whole entry): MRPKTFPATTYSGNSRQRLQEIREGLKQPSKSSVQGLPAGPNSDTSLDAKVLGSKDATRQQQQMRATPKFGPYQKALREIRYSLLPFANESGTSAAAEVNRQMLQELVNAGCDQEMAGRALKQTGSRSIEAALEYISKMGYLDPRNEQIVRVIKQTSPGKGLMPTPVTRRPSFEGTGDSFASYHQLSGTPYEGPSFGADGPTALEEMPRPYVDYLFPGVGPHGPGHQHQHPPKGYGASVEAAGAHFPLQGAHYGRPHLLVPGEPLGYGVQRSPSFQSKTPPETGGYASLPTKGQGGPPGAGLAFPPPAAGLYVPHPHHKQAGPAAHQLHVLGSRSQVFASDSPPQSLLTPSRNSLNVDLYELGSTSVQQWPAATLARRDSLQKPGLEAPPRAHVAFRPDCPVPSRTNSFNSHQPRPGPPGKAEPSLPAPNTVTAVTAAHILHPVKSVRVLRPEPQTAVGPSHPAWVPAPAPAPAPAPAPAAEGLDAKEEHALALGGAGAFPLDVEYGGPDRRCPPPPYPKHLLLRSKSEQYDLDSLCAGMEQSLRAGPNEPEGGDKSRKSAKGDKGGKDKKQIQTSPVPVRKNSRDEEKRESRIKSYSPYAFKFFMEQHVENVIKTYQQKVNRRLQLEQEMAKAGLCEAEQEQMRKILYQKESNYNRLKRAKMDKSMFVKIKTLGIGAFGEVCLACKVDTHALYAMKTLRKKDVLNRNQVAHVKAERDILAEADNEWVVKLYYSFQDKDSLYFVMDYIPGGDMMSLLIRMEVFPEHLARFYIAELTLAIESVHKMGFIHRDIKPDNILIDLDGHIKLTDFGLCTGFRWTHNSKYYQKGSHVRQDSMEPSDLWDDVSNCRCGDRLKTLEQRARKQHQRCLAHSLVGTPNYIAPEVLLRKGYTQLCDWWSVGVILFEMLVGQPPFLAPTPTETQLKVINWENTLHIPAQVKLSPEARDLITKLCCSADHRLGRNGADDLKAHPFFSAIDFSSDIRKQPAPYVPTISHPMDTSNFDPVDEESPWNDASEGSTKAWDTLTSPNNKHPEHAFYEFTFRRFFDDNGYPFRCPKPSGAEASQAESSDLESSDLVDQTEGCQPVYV
Sequence of Interleukin-1 receptor-associated kinase 4 (Homo sapiens) (Q9NWZ3 whole entry): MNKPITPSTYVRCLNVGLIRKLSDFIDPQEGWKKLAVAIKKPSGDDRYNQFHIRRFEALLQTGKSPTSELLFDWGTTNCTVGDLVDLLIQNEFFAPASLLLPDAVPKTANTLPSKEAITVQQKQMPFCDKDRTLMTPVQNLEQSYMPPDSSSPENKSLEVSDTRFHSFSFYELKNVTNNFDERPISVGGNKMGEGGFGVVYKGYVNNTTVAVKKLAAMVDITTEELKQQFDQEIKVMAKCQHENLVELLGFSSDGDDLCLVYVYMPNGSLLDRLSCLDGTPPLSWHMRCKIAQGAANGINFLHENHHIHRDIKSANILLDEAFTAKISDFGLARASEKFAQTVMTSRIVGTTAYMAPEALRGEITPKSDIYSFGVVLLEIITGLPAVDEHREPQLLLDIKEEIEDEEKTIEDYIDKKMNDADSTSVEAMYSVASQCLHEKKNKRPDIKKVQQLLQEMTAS
Sequence of Dual specificity mitogen-activated protein kinase kinase 5 (Homo sapiens) (Q13163 whole entry): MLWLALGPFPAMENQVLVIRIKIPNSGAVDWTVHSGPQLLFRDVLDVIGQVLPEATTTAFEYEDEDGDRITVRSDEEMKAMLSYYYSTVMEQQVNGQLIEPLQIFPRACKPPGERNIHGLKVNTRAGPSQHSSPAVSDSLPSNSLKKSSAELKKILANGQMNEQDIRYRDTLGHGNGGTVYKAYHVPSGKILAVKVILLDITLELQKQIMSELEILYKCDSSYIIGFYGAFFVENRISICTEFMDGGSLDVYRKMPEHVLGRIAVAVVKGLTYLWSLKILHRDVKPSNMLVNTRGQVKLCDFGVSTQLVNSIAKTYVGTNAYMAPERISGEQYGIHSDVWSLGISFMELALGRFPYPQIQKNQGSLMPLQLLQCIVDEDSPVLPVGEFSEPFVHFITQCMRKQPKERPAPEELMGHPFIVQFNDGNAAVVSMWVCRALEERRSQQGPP

## COc1ccc2c3ccnc(C(F)(F)F)c3n(CCCCN)c2c1
Liver
  CLH: 3.8 µL/min/mg
[1]
  inhibition: 0%
[2]
  inhibition: 9%
[3]
  inhibition: 0%
[4]
  inhibition: 5%
[5]
  inhibition: 4%
[6]
  inhibition: 0%
[7]
  inhibition: 0%
[8]
  inhibition: 0%
[9]
  inhibition: 7%
[10]
  inhibition: 31%
[11]
  inhibition: 9%
[12]
  inhibition: 44%
[13]
  inhibition: 0%
[14]
  inhibition: 7%
[15]
  inhibition: 8%
[16]
  inhibition: 16%
[17]
  inhibition: 0%
[18]
  inhibition: 0%
[19]
  inhibition: 1%
[20]
  inhibition: 0%
[21]
  inhibition: 8%
[22]
  inhibition: 73%
[23]
  inhibition: 1%
[24]
  inhibition: 98%
[25]
  inhibition: 97%
[26]
  inhibition: 16%
[27]
  inhibition: 26%
[28]
  inhibition: 20%
[29]
  inhibition: 38%
[30]
  inhibition: 1%
[31]
  inhibition: 8%
[32]
  inhibition: 75%
[33]
  inhibition: 47%
[34]
  inhibition: 5%
[35]
  inhibition: 37%
[36]
  inhibition: 5%
[37]
  inhibition: 30%
[38]
  inhibition: 92%
[39]
  inhibition: 12%
[40]
  inhibition: 91%
[41]
  inhibition: 22%
[42]
  inhibition: 85%
[43]
  inhibition: 84%
[44]
  inhibition: 87%
[45]
  inhibition: 36%
[46]
  inhibition: 8%
